The source of these data is US11771709B2, “ALK protein degradation agent and anti-tumor application thereof” (ShanghaiTech University, priority 2017, dated 2023).

The subject of one data set is SR (NPM-ALK) cells. Put plainly: Growth inhibition IC50 in ALCL SR cells (CCK8/WST, 72 hours). Format: cell-based. As to conditions: SR cells, WST, Brigatinib-based PROTAD molecules (Table 3).
The test system of data set [1] is NCI-H2228 (EML4-ALK, V3) cells. Put plainly: Growth inhibition IC50 in lung adenocarcinoma H2228 cells (WST). Format: cell-based. To be noted: Homo sapiens, WST (Table 3). The source says: Experiments were repeated at least three times.
Besides above, we also tested the dosage-dependent effects on the growth inhibition in H2228 cells. […] (Table 3).

In data set [2] the target is T1, ALK protein in SR (NPM-ALK) cells (Homo sapiens, UniProt Q9UM73).
T1 construct: NPM (nucleophosmin, NPM1, P06748) fusion partner; host or cells: SR (ALCL) cells; the other entry of the earlier key: NPM1 (P06748, Nucleophosmin)
The data set can be described thus: Western blot of ALK protein level (degradation, DC50), ALK phosphorylation and downstream signaling in SR cells. The class given is cell-based. As to conditions: for ALK protein degradation: 16 hours, up to 500 nM; for DC50: ALK protein degradation in SR cells. (In western blotting, separated proteins are transferred to a membrane and probed.)
Procedure: Cancer cells were seeded in 1 ml RPMI1640 medium in 24-well plate at the density of 3×10^5 or 1.5×10^5 cells/ml. […] Then cells were washed twice with PBS and lyzed in RIPA lysis buffer with Halt Proteinase and Phosphotase inhibitor. Equal amount of proteins were loaded to run SDS-PAGE gels after denature. The gels were blotted to PVDF membrane. After incubating with first and secondary antibodies, the images were developed using SuperSignal West Pico Chemiluminescent Substrate.
DC50 (concentration required to degrade protein by half) were calculated based on the intensity from western blot, and data were analyzed via Prism GraphPad with non-linear regression.

Data set [3] deals with SW48 cell line (EGFR G719S). Put plainly: Growth inhibition IC50 in EGFR G719S colorectal cancer cell line SW48. As to conditions: Homo sapiens, CTG, n = 2, read-out: Half Inhibitory Concentration (IC50) Mean. The class given is cell-based.
Procedure: (§1) Cells were seeded at specific density in 96 well plates one day before treatment. […] Viable cells were measured via CCK8 reagent and IC50s were calculated via Prism Graphad. Experiments were repeated at least three times.
A further data set relates to MOLM13 cells (FLT3-ITD). The data set can be described thus: Growth inhibition IC50 in FLT3-ITD AML cell line MOLM13. Format: cell-based. To be noted: Homo sapiens.
Data set [4] deals with PC9 (EGFR, exon 19 del) cells. The data set can be described thus: Growth inhibition IC50 in EGFR mutant lung adenocarcinoma PC9 cells. As to conditions: Homo sapiens. The class given is cell-based.
Procedure: (§2) SR (NPM-ALK) and NCI-H2228 (EML4-ALK, V3) cells were purchased from ATCC. […] All Cells were cultured in RPMI1640 medium with 10% FBS and Penicillin-Streptomycin in 37° C. incubator with 5% CO2.
as §1
The target in the next data set is T2, Ba/F3 (EML4-ALK/C1156Y) (Homo sapiens, UniProt Q9UM73, C1156Y, cells depend on it).
T2 construct: Q9HC35 (Echinoderm microtubule-associated protein-like 4)
Put plainly: Growth inhibition IC50 in Ba/F3 cells expressing EML4-ALK C1156Y. Format: cell-based.

Data set [5] deals with PC9Brc1 (EGFR, exon 19 del+T790M) cells. The data set can be described thus: Growth inhibition IC50 in EGFR mutant lung cancer PC9Brc1 cells. To be noted: CTB, n ≥ 3, read-out: Half Inhibitory Concentration (IC50) Mean. Format: cell-based.
Procedure: as §2, §1
A further data set has as its target T3, Ba/F3 (EML4-ALK/L1196M) (Homo sapiens, UniProt Q9UM73, L1196M, cells depend on it).
T3 construct: Q9HC35 (Echinoderm microtubule-associated protein-like 4)
Put plainly: Growth inhibition IC50 in Ba/F3 cells expressing EML4-ALK L1196M. Format: cell-based.

The test system of data set [6] is U118MG cells (FIG-ROS1 gene fusion). The data set can be described thus: Growth inhibition IC50 in ROS1 mutant glioblastoma cell line U118MG (72 hours). Format: cell-based. To be noted: Homo sapiens, U-118-MG.
Data set [7] concerns ALK positive non-small cell lung cancer. As to conditions: patients; cited from earlier work.
A short description of data set [8]: Pharmacokinetics (PK) study in SD rat (IV, IP, PO; LC-MS/MS). The class given is in vivo. To be noted: Sprague-Dawley, serum; for clearance: read-out: clearance rate, mean value. On the procedure:
SD rat were used to study the PK of ALK PROTAD compounds. ALK PROTAD compounds SIAIS164008, SIAIS164018, SIAIS164023 and SIAIS151118 were administrated into SD rat via three different routes: IV (Intravenous Injection), IP (Intraperitoneal Injection) and PO ([…]). Blood samples at different sampling time points up to 24 hours post dosing were collected from each animal and analyzed with LC-MS/MS to calculate the PK for each chemical.

The target of data set [9] is T4, ALK protein in H3122 (EML4-ALK) cells (Homo sapiens, UniProt Q9UM73).
T4 construct: EML4 (Echinoderm microtubule-associated protein-like 4, Q9HC35) fusion partner, variant 1; host or cells: NCI-H3122 lung adenocarcinoma cells; the other entry of the earlier key: EML4 (Q9HC35, Echinoderm microtubule-associated protein-like 4)
Put plainly: Western blot of ALK protein level (degradation, DC50), ALK phosphorylation and downstream signaling in H3122 cells. Format: cell-based. As to conditions: ALK protein degradation in H3122 cells.

A further data set addresses T5, Ba/F3 (EML4-ALK/WT) (Homo sapiens, UniProt Q9UM73).
T5 construct: Q9HC35 (Echinoderm microtubule-associated protein-like 4)
Put plainly: Growth inhibition IC50 in Ba/F3 cells expressing EML4-ALK wild type. The class given is cell-based.

Data set [10] concerns ALK protein in H2228 (EML4-ALK) cells. The data set can be described thus: Western blot of ALK protein level, ALK phosphorylation and downstream signaling in H2228 cells. The class given is cell-based. On the procedure: Cancer cells were seeded in 1 ml RPMI1640 medium in 24-well plate at the density of 3×10^5 or 1.5×10^5 cells/ml. The next day cells were treated with different concentration of drugs for 16 hours. Then cells were washed twice with PBS and lyzed in RIPA lysis buffer with Halt Proteinase and Phosphotase inhibitor. Equal amount of proteins were loaded to run SDS-PAGE gels after denature. The gels were blotted to PVDF membrane. After incubating with first and secondary antibodies, the images were developed using SuperSignal West Pico Chemiluminescent Substrate.
The effect of Brigtinib based PROTAD molecules on the ALK protein total level were studied by western blot in ALCL SR (NPM-ALK) cell line and lung adenocarcinoma cell line H2228 and H3122 (EML4-ALK).
The effects of compounds SIAIS164008 and SIAIS164018 of the present invention on the activation of ALK mediated signaling pathways were also studied in SR cells and H2228 cells. […] The overall effect of compound of SIAIS164018 was better than that of SIAIS164008.

For the next data set, the target named is T6, ALK protein in SR cells (Homo sapiens, UniProt Q9UM73).
T6 construct: NPM (nucleophosmin, NPM1, P06748) fusion partner; host or cells: SR (ALCL) cells; the other entry of the earlier key: NPM1 (P06748, Nucleophosmin)
The data set can be described thus: Block of ALK degradation by proteosome inhibitors MG132 and MLN4924 in SR cells. The class given is cell-based. The source says: To further validate the degradation effect act through proteosome mediated pathway, we also treated cells with two different proteosome inhibitors MG132 and MLN4924 to block protein degradation (FIG. 16).

[11] abbreviates: MOLM-13, MOLM13 cells, n = 2, reagent CTG, read-out: Half Inhibitory Concentration (IC50) Mean.
Where [12] appears, read: IP, 2 mg/kg, read-out: serum half-life (converted).
Setting [13] is: IP, 2 mg/kg, read-out: time to maximal serum peak level (Tmax).
Where [14] appears, read: IV, single dose 2 mg/kg, read-out: serum clearance half-life (converted).
[15] abbreviates: PO, 10 mg/kg, read-out: serum half-life (converted).
Where [16] appears, read: U118MG cells, 72 hours, n = 2, reagent CTG, read-out: Half Inhibitory Concentration (IC50) Mean.

The structures appear in SMILES notation. Like-named read-outs stand apart in the source and are kept apart here.

Procedure for Ba/F3 (EML4-ALK/C1156Y): as §1
Procedure for Ba/F3 (EML4-ALK/L1196M): as §1
Procedure for Ba/F3 (EML4-ALK/WT): as §1
Procedure for MOLM13 cells (FLT3-ITD): as §1

The GI50 is the concentration at which growth is held to half of that of the control. Lower therefore signals more potent growth inhibition. For the molecule `COc1cc(N2CCC(N3CCN(C)CC3)CC2)ccc1Nc1ncc(Cl)c(Nc2ccccc2P(C)(C)=O)n1` [Brigatinib, reference compound], the IC50 in the data set with SR (NPM-ALK) cells (72 hours) is 2.8 nM; in [1], 45.2 nM; in data set [3], 2720 nM; in the data set on MOLM13 cells (FLT3-ITD) (MOLM-13), around 152 nM; in the data set on MOLM13 cells (FLT3-ITD) (MOLM-13, read-out: Half Inhibitory Concentration (IC50) Mean) it was 152 nM; in data set [4] (PC-9, read-out: Half Inhibitory Concentration (IC50) Mean), 102 nM. Also, the IC50 in data set [5] is 246 nM; in [6] (72 h) it was around 6800 nM; in data set [6] (72 h, read-out: Half Inhibitory Concentration (IC50) Mean) it was 6800 nM. Also, in data set [2] (SR cells, 30 nM to 300 uM, 4-24 hours), the “ALK protein levels, time- and dose-dependence” value is recorded as “did not affect ALK protein levels”. For the same molecule, in data set [2] (SR cells, western blot), the ALK protein degradation entry is reported as “did not degrade ALK proteins”. Moreover, the GI50 is 36.8 nM on Ba/F3 (EML4-ALK/C1156Y) and 35.9 nM at Ba/F3 (EML4-ALK/L1196M). Also, the disease control rate result in data set [7] is listed as “about 86%”. In [7], the response rate is 55%.

What is called DC50 is the midpoint of the concentration-degradation curve. High values mean a less potent degrader, low ones a more potent degrader. In general, half-life refers to the time needed for the level to fall by half in the phase considered. For orientation: Tmax means the time from dosing to the highest level. Regarding `COc1cc(N2CCC(NC(=O)CCCNc3cccc4c3C(=O)N(C3CCC(=O)NC3=O)C4=O)CC2)ccc1Nc1ncc(Cl)c(Nc2ccccc2P(C)(C)=O)n1` (stereo not drawn) [SIAIS151118, N-(1-(4-((5-chloro-4-((2-(dimethylphosphoryl)phenyl)amino)pyrimidin-2-yl)amino)-3-methoxyphenyl)piperidin-4-yl)-4-((2-(2,6-dioxopiperidin-3-yl)-1,3-dioxoisoindolin-4-yl)amino)butanamide], the IC50 was 0.9 ± 0.2 nM with SR (NPM-ALK) cells (72 h); 346 nM in data set [1]; 1920 nM in [3]; 101 nM with MOLM13 cells (FLT3-ITD) (setting [11]); 101 nM in the data set with MOLM13 cells (FLT3-ITD) (MOLM-13, MOLM13 cells, read-out: IC50); 4260 nM in [6] (setting [16]). Further, the results for the DC50 in data set [2] and in data set [9] were 1 to 10 nM and 1 to 50 nM, respectively. Besides, the bioavailability in [8] (IP, 2 mg/kg) is 225%; in data set [8] (PO, 10 mg/kg), 36%. The half-life is 3.27 h in data set [8] (setting [12]), around 4.73 h in data set [8] (setting [14]) and 4.66 h in data set [8] (setting [15]). For the same molecule, the Tmax was around 1.67 h in data set [8] (setting [13]) and 3.33 h in data set [8] (PO, 10 mg/kg, read-out: Tmax). Besides, the clearance in data set [8] (IV, single dose 2 mg/kg) was around 6.35 mL/min/kg. Further, the values for the GI50 at Ba/F3 (EML4-ALK/C1156Y), on Ba/F3 (EML4-ALK/WT) and on Ba/F3 (EML4-ALK/L1196M) were 129 nM, 92 nM and 146 nM, respectively.

For the molecule `COc1cc(N2CCC(N3CCN(C(=O)CCOCCOCCNc4cccc5c4C(=O)N(C4CCC(=O)NC4=O)C5=O)CC3)CC2)ccc1Nc1ncc(Cl)c(Nc2ccccc2P(C)(C)=O)n1` (stereo not drawn) [SIAIS164008, 4-((2-(2-(3-(4-(1-(4-((5-chloro-4-((2-(dimethylphosphoryl)phenyl)amino)pyrimidin-2-yl)amino)-3-methoxyphenyl)piperidin-4-yl)piperazin-1-yl)-3-oxopropoxy)ethoxy)ethyl)amino)-2-(2,6-dioxopiperidin-3-yl)isoindoline-1,3-dione], the IC50 with SR (NPM-ALK) cells (72 h) is 3.6 ± 2.1 nM; in [1], 74 nM; in [3], 15200 nM; in the data set on MOLM13 cells (FLT3-ITD) (setting [11]), 392 nM; in data set [4] (PC-9, PC9 cells, CTB, n ≥ 3, read-out: Half Inhibitory Concentration (IC50) Mean) it was 265 nM; in data set [5], 1830 nM. Also, the IC50 was 3520 nM in data set [6] (setting [16]) and around 3520 nM in data set [6] (U118MG cells, 72 hours, read-out: IC50). In addition, the DC50 is 1 to 10 nM in [2] and 10 to 50 nM in [9]. Besides, the “concentration inhibiting the phosphorylation of ALK proteins” value in data set [2] (SR cells, western blot) turned out to be 0.1 nM. For the same molecule, the “downstream signaling pathway (PI3K/AKT, MEK/ERK and STAT3)” value in [2] (SR cells, western blot) was “significantly inhibited”. For the same molecule, the ALK protein degradation result in data set [2] (SR cells, western blot) is “effectively degrade ALK proteins at nano mole concentration”. In addition, the bioavailability was found to be 93% in data set [8] (IP, 2 mg/kg) and 14.9% in [8] (PO, 10 mg/kg). The half-life is 1.54 h in data set [8] (setting [12]), around 0.85 h in data set [8] (setting [14]) and 3.98 h in [8] (setting [15]). Further, the Tmax is around 0.42 h in [8] (setting [13]) and 2.75 h in data set [8] (PO, 10 mg/kg, read-out: Tmax). Moreover, the clearance in [8] (IV, single dose 2 mg/kg) was around 414 mL/min/kg. For the same molecule, the GI50 at Ba/F3 (EML4-ALK/C1156Y) came out at 243 nM; at Ba/F3 (EML4-ALK/WT) it was 115 nM; on Ba/F3 (EML4-ALK/L1196M) it was 376 nM. For the same molecule, the “phosphorylation of ALK protein and activation of PI3K/AKT pathway” value in data set [10] is listed as “inhibited”.

As for `COc1cc(N2CCC(N3CCN(C(=O)CNc4cccc5c4C(=O)N(C4CCC(=O)N(C)C4=O)C5=O)CC3)CC2)ccc1Nc1ncc(Cl)c(Nc2ccccc2P(C)(C)=O)n1` (stereo not drawn) [SIAIS1210003, 4-((2-(4-(1-(4-((5-chloro-4-((2-(dimethylphosphoryl)phenyl)amino)pyrimidin-2-yl)amino)-3-methoxyphenyl)piperidin-4-yl)piperazin-1-yl)-2-oxoethyl)amino)-2-(1-methyl-2,6-dioxopiperidin-3-yl)isoindoline-1,3-dione], the “reduction of ALK protein level and its block by MG132 and MLN4924” value on ALK protein in SR cells is “no such effect”.
